Experiments:
[1] = Acute toxicity, lethal dose 50 (LD50), intraperitoneal; set-up: species or system albino rats I.C.R. Swiss; details: rat, in vivo, ip
Source text: The lethal dose 50 (LD50) has been determined on albino rats I.C.R. Swiss, of both sexes, weighing 24 ± 2 g.

[2] = test system: hypnotic effect of the pentobarbital; experiment: Potentiation of barbiturates (sodium pentobarbital hypnotic effect); type: in vivo, albino rats I.C.R. Swiss; details: for Asleep after 180 minutes (number of animals) / Awake after 180 minutes (number of animals): 30 min before sodium pentobarbital 60 mg/kg i.p., of 20; for potentiation of the hypnotic effect of the pentobarbital (in words): sodium pentobarbital 60 mg/kg i.p., I 180, II 35, III 18, Diazepam 3,6 mg/kg
Description: Albino rats I.C.R. Swiss weighing 25 ± 2 g have been used.
Lot (1): Sodium pentobarbital 60 mg/kg + I (180 mg/kg).
Lot (2): Sodium pentobarbital 60 mg/kg + II (35 mg/kg).
Lot (3): Sodium pentobarbital 60 mg/kg + III (18 mg/kg).
Lot (5): Sodium pentobarbital 60 mg/kg + distilled H2 O (control lot).
The number of animals awake after 180 minutes after the administration of the barbiturate are noted. The following results have been obtained according to the statistic test of Chi^2 : […]

[3] = test system: convulsions and lethal effect of cardiazol; experiment: Anti-convulsant activity against cardiazol; type: in vivo, albino rats I.C.R. Swiss; details: for number of animals with convulsions / number of dead animals: after 30 minutes cardiazol 1 mg/rat, 10 rats per lot
Description: There have been employed 4 lots of 10 rats per lot, which received:
Lot (1): I 180 mg/kg and after 30 minutes cardiazol 1 mg/rat.
Lot (2): II 35 mg/kg and after 30 minutes cardiazol 1 mg/rat.
Lot (3): III 18 mg/kg and after 30 minutes cardiazol 1 mg/rat.

[4] = II 35 mg/kg, cardiazol 1 mg/rat

CCCC(CCC)C(=O)NCc1ccccn1 [Compound I, N-(2-picolyl)-dipropylacetamide]
LD50 [1]: > 1600 mg/kg | Asleep after 180 minutes (number of animals) ([2]; I 180 mg/kg, control 1, p<0.001 (Chi^2)): 17 | Awake after 180 minutes (number of animals) ([2]; I 180 mg/kg, control 19, p<0.001 (Chi^2)): 3 | potentiation of the hypnotic effect of the pentobarbital (in words) [2]: potentiates clearly the hypnotic effect of the pentobarbital | number of animals with convulsions ([3]; I 180 mg/kg, control 10): 9 | number of dead animals ([3]; I 180 mg/kg, control 10): 7 | protection of the lethal effect of the cardiazol ([3]; I 180 mg/kg, cardiazol 1 mg/rat): 30%

CCCC(CCC)C(=O)NCc1cccnc1 [Compound II, N-(3-picolyl)-dipropylacetamide]
LD50 [1]: 95 mg/kg | Asleep after 180 minutes (number of animals) ([2]; II 35 mg/kg, control 1, p<0.001 (Chi^2)): 14 | Awake after 180 minutes (number of animals) ([2]; II 35 mg/kg, control 19, p<0.001 (Chi^2)): 6 | potentiation of the hypnotic effect of the pentobarbital (in words) [2]: potentiates clearly the hypnotic effect of the pentobarbital | number of animals with convulsions ([3]; II 35 mg/kg, control 10): 0 | number of dead animals ([3]; II 35 mg/kg, control 10): 0 | protection of the convulsions [3, 4]: 100% | protection of the lethal effect of the cardiazol [3, 4]: 100%

CCCC(CCC)C(=O)NCc1ccncc1 [Compound III, N-(4-picolyl) - dipropylacetamide]
LD50 [1]: 264 mg/kg | Asleep after 180 minutes (number of animals) ([2]; III 18 mg/kg, control 4, p<0.001 (Chi^2)): 19 | Awake after 180 minutes (number of animals) ([2]; III 18 mg/kg, control 16, p<0.001 (Chi^2)): 1 | potentiation of the hypnotic effect of the pentobarbital (in words) [2]: potentiates clearly the hypnotic effect of the pentobarbital | number of dead animals ([3]; III 18 mg/kg, control 0): 0 | number of animals with convulsions ([3]; III 18 mg/kg, control 5): 1 | protection of the convulsion effect of cardiazol ([3]; III 18 mg/kg, cardiazol 1 mg/rat): 40%

CN1C(=O)CN=C(c2ccccc2)c2cc(Cl)ccc21 [Diazepam, reference compound]
Asleep after 180 minutes (number of animals) ([2]; Diazepam 3,6 mg/kg, control 4, p<0.02 (Chi^2)): 15 | Awake after 180 minutes (number of animals) ([2]; Diazepam 3,6 mg/kg, control 16, p<0.02 (Chi^2)): 5 | potentiation of the hypnotic effect of the pentobarbital (in words) [2]: potentiates clearly the hypnotic effect of pentobarbital, but not as much as the three compounds according to this invention | anti-convulsant / anti-epileptic activity (in words) ([3]; general statement): Results have been positive with cardiazol

Source: US3951995A, “Method for industrial production of N-substituted dipropylacetamides” (Laboratorios Made, S.A., priority 1973, dated 1976)
